Test results as given in patent US20240254072A1, “DERIVATIVES OF CANNABIDIOL-C4 FOR THE TREATMENT OF EPILEPSY” (priority 2021, published 2024).
Values joined by “and” are separate entries in the source; they are usually repeats but may differ in a detail not shown here. Identical values can stand only once. Like-named read-outs stand apart in the source and are kept apart here.

Columns and labels:
[1] = test system: tonic hind limb extensor convulsions induced by electroshock (generalised seizure); experiment: mini-MEST (maximal electroshock seizure threshold) test in the mouse; details: for % change from vehicle (CC50) / CC50 +/- SEM (current producing tonic hind limb extension in 50% of animals): mouse, i.p., 30 min post dose, diazepam 2.5 mg/kg, Compound I 100 mg/kg, Compound II 150 mg/kg; for CC50 +/- SEM (current producing tonic hind limb extension in 50% of animals): N=6
Method: The maximal electroshock seizure threshold (MEST) test is widely utilized preclinically to evaluate pro- or anti-convulsant properties of test compounds (Loscher et al., 1991).
In the MEST test the ability of a drug to alter the seizure threshold current required to induce hind limb tonic extensor convulsions is measured according to an “up and down” method of shock titration (Kimball et al., 1957). An increase in seizure threshold is indicative of anti-convulsant effect.
The ability of a test compound to alter the stimulus intensity, expressed as current (mA), required to induce the presence of tonic hind limb extensor convulsions, is assessed in the MEST.
Naïve mice were acclimatised to the procedure room in their home cages for up to 7 days, with food and water available ad libitum.
All animals were weighed at the beginning of the study and randomly assigned to treatment groups based on a mean distribution of body weight across groups.
The first animal within a treatment group was given a shock at the expected or estimated CC50 current. For subsequent animals, the current was lowered or raised depending on the convulsions outcome from the preceding animal in log scale intervals.
Data generated from each treatment group were used to calculate the CC50±SEM values for the treatment group.
Vehicle: (5% ethanol, 10% solutol in 85% Saline) was prepared as follows: 1 mL of ethanol, 2 mL of solutol were warmed to 60° ° C., in 17 mL of saline (1:2:17).
The test compounds, described herein as Compound I and Compound II, are as shown as Formula I and Formula II respectively. Test compounds were administered at 100 mg/kg (i.p.) for Compound I and 150 mg/kg (i.p.) for Compound II in a 1:2:17 ethanol:solutol:0.9% saline formulation.
The data for each treatment group were recorded as the number of +'s and 0's at each current level employed and this information is then used to calculate the CC50 value (current required for 50% of the animals to show seizure behaviour)±standard error.
Test compound effects were also calculated as percentage change in CC50 from the vehicle control group.
Significant difference between drug-treated animals and controls were assessed according to Litchfield and Wilcoxon (1949).

[2] = Bioanalysis of plasma and brain concentrations by UPLC-MS/MS; type: in vivo, mice; details: mouse, i.p., 30 min post-dose, Compound I 100 mg/kg, Compound II 150 mg/kg; for Brain concentration / Brain concentration at 30 min: Location Brain; for Plasma Conc. (individual animal) / concentration at 30 min: Location Plasma; for Brain concentration at 30 min / concentration at 30 min: in vivo
Method: Each animal was humanely killed immediately after production of a convulsion by destruction of the brain from striking the cranium, followed by the confirmation of permanent cessation of the circulation from decapitation under The Humane Killing of Animals under Schedule 1 to the Animals (Scientific Procedures) Act 1986. Terminal blood and brain collection were performed following decapitation.
Blood was collected in Lithium-heparin tubes and centrifuged at 4 °C for 10 minutes at 1500× g. The resulting plasma was removed (>100 μL) and split into 2 aliquots of 0.5 mL Eppendorf tubes containing 10 μL of ascorbic acid (100 mg/mL) for stabilisation. Brains were removed, washed in saline and halved. Each half was placed into separate 2 mL screw cap cryovials, weighed and frozen on cardice.
Bioanalysis experiments were carried out to determine the quantitative measurement of Compound I and Compound II in plasma and brain.
Six mice were dosed with Compound I at 100 mg/kg and another six with Compound II at 150 mg/kg via intraperitoneal (i.p) injection. Sample analysis was performed 30 min post-dose using a sample volume of 40 μL. Following addition of internal standard (in acetonitrile) and Isopropanol samples were protein precipitated by addition of acetonitrile. Samples were centrifuged and supernatant transferred to a clean 96-well plate (with addition of Tween to minimise non-specific binding to plate materials), evaporated to dryness then reconstituted in suitable solvent. The extracts quantified by ultraperformance liquid chromatography-tandem mass spectrometry (UPLC-MS/MS).

inflammation = details: WO 01/95899; cited from earlier work
[3] = test system: Maximal Electroshock generalised seizures; details: data of EP3160457 / WO 2020/104796; cited from earlier work
[4] = test system: pentylenetetrazole-induced generalised seizures; details: data of EP3160457; cited from earlier work
[5] = range of toxicology screens, WO 2020/104796; cited from earlier work
[6] = read-out: Mean Plasma Conc., Location Brain
[7] = read-out: Plasma Conc., Location Brain (individual animal)
[8] = read-out: Plasma Conc. (individual animal)

SMILES | % change from vehicle (CC50) [1] | CC50 +/- SEM (current producing tonic hind limb extension in 50% of animals) [1] | Brain concentration [2] | Plasma Conc. (individual animal) [2] | Brain concentration at 30 min [2, 6] | Brain concentration at 30 min [2, 7] | concentration at 30 min ([2]; read-out: Mean Plasma Conc.) | concentration at 30 min [2, 8] | anticonvulsant effect in MES model [3] | anticonvulsant effect in PTZ model [4] | further results
C=C(C)[C@@H]1CCC(C(=O)O)=C[C@H]1c1c(O)cc(CCCC)cc1O [Compound II, (1R,6R)-4′-butyl-2′,6′-dihydroxy-6-(prop-1-en-2-yl)-1,4,5,6-tetrahydro-[1,1′-biphenyl]-3-carboxylic acid] | <72% | <43 mA | 22.356 µM and 22.956 µM and 15.408 µM and 23.332 µM and 19.363 µM | 856.643 µM and 1008.984 µM and 1144.841 µM and 1209.706 µM and 1141.405 µM | 19.8 µM | 15.7 µM | 1050 µM | 960 µM |  |  | 
C=C(C)[C@@H]1CCC(CO)=C[C@H]1c1c(O)cc(CCCCC)cc1O [Compound 7-OH-CBD, 7-hydroxy-cannabidiol] |  |  |  |  |  |  |  |  | anticonvulsant effects | anticonvulsant effects | effect in model of inflammation (inflammation): found to be effective
C=C(C)[C@@H]1CCC(CO)=C[C@H]1c1c(O)cc(CCCC)cc1O [Compound I, (1′R,2′R)-4-butyl-5′-(hydroxymethyl)-2′-(prop-1-en-2-yl)-1′,2′,3′,4′-tetrahydro-[1,1′-biphenyl]-2,6-diol] |  | >131 mA | 122.248 µM and 113.886 µM and 107.349 µM and 125.595 µM and 129.784 µM | 252.278 µM and 248.66 µM and 242.732 µM | 122 µM | 131 µM | 251 µM | 264 µM |  |  | occurrence of tonic hindlimb convulsions in treatment group ([1]; Compound I 100 mg/kg i.p., 30 min, 6 animals): did not have any convulsions
CN1C(=O)CN=C(c2ccccc2)c2cc(Cl)ccc21 [Diazepam, diazepam, reference compound] | 291% |  |  |  |  |  |  |  |  |  | 
C=C(C)[C@@H]1CCC(CO)=C[C@H]1c1c(O)cc(CCC)cc1O [Compound 7-OH-CBDV, 7-hydroxy-cannabidivarin] |  |  |  |  |  |  |  |  | anticonvulsant effects | anticonvulsant effects | 
C=C(C)[C@@H]1CCC(C)=C[C@H]1c1c(O)cc(CCCC)cc1O [CBD-C4, Cannabidiol-C4] |  |  |  |  |  |  |  |  | Therapeutic efficacy was shown |  | toxicology [5]: acceptable toxicology
